The source made the active and inactive calls. The rule behind the calls is not given here.
Legend:
[1] = Antioxidant activity of compound in presence of Glutathione; format: functional
[2] = Antioxidant activity of compound in presence of Cl-; format: functional
[3] = Acute toxicity in BALB/c mouse implanted with mouse 4T1 cells assessed as change in body weight at 5 mg/kg, iv measured for 11 days; format: organism-based; conditions: in vivo, 264 h, time 11 day
[4] = Antioxidant activity of compound in presence of Br-; format: functional
[5] = Stability of compound in DMSO-H2O incubated for 1 hr by absorbance based analysis; format: physicochemical
[6] = Antioxidant activity of compound in presence of H2O2-; format: functional
[7] = tested on: Squamous carcinoma cell line; test: Antitumor activity against patient-derived Squamous carcinoma cell line xenografted in BALB/c mouse assessed as tumor growth inhibition at 0.5 mg/kg, iv measured for 5 days; format: functional, organism-based; conditions: Homo sapiens, time 5.0 day
[8] = Drug uptake in mouse 4T1 cells assessed as increase in green fluorescence intensity at 5 uM incubated for 30 mins by F-actin staining staining based microscopic analysis; format: ADME, cell-based; conditions: 4t1, 0.5 h
[9] = Antioxidant activity of compound in presence of L-Cysteine; format: functional
[10] = Antioxidant activity of compound in presence of OH; format: functional
[11] = Toxicity in BALB/c mouse implanted with mouse 4T1 cells assessed as liver damage at 5 mg/kg, iv measured for 11 days by H and E staining based analysis; format: organism-based; conditions: in vivo, 264 h, time 11 day
[12] = tested on: Mitochondrial membrane; test: Induction of mitochondrial membrane potential loss in human NCI-H226 cells; format: cell membranes
[13] = Antioxidant activity of compound in presence of HCO3-; format: functional
[14] = Antioxidant activity of compound in presence of CO3; format: functional
[15] = Drug localization in mitochondria of human NCI-H226 cell by MitoTracker Red based NIR confocal microscopic analysis; format: ADME
[16] = tested on: Mitochondrial membrane; test: Induction of mitochondrial membrane potential loss in human NCI-H226 cells at 2 uM incubated for 4 hrs by TMRE staining based fluorescence microscopic analysis; format: cell membranes
[17] = tested on: NCI-H250; test: Antitumor activity against human […] cells xenografted in BALB/c mouse assessed as tumor growth inhibition 0.5 mg/kg, iv measured for 5 days; format: functional, organism-based; conditions: time 5.0 day
[18] = Solubility of compound in DMSO-H2O; format: physicochemical
[19] = Drug accumulation in BALB/c mouse plasma xenografted with human NCI-H520 cells assessed as increase in fluorescence intensity at 0.5 mg/kg, iv measured at 96 to 120 hrs by imaging based analysis; format: ADME, organism-based; conditions: in vivo, time 96-120 hrs
[20] = Drug uptake in mouse 4T1 cells assessed as increase in red fluorescence intensity at 5 uM incubated for 30 mins by CY7 staining based microscopic analysis; format: ADME, cell-based; conditions: 4t1, 0.5 h
[21] = Antioxidant activity of compound in presence of NH4+; format: functional
[22] = Antioxidant activity of compound in presence of ONOO-; format: functional
[23] = tested on: NIH3T3; test: Cytotoxicity against mouse 3T3 cells assessed as decrease in cell viability up to 5 uM incubated for 24 hrs by CCK-8 assay; format: toxicity, cell-based; conditions: nih3t3, 24 h
[24] = tested on: 4T1; test: Antitumor activity against mouse 4T1 cells implanted in BALB/c mouse assessed as tumor growth inhibition 5 mg/kg, iv measured for 11 days; format: functional; conditions: 4T1, 264 h, time 11 day, read-out: TGI
[25] = Antioxidant activity of compound in presence of […]; format: functional
[26] = Antioxidant activity of compound in presence of RNS; format: functional
[27] = tested on: NCI-H226; test: Induction of apoptosis in human NCI-H226 cells assessed as viable cells at 5 uM incubated for 48 hrs by Annexin V-FITC/PI staining based flow cytometry (reference value: 93.4 %); format: functional; conditions: read-out: Activity
[28] = Drug uptake in human NCI-H226 cells assessed as increase in fluorescence intensity incubated for 24 hrs by fluorescence based microscopic analysis; format: ADME, cell-based; conditions: nci-h226, 24 h
[29] = tested on: NCI-H226; test: Cytotoxicity against human NCI-H226 assessed as decrease in cell viability up to 10 uM incubated for 24 hrs by CCK-8 assay; format: functional, cell-based
[30] = tested on: NCI-H226; test: Induction of DNA damage in human NCI-H226 cells assessed as increase in gamma-H2AX level at 5 uM incubated for 24 hrs by immunofluorescence analysis; format: functional, cell-based
[31] = Stability of compound in DMSO-H2O incubated for 150 mins by absorbance based analysis; format: physicochemical; conditions: 2.5 h
[32] = Toxicity in BALB/c mouse implanted with mouse 4T1 cells assessed as survival rate at 5 mg/kg, iv measured for 11 days; format: organism-based; conditions: in vivo, time 11 day
[33] = Antioxidant activity of compound in presence of HCHO; format: functional
[34] = Antioxidant activity of compound in presence of HSO3-; format: functional
[35] = Photostability of compound in DMSO-H2O incubated for 1 hr irradiated with deuterium lamp by absorbance based analysis; format: physicochemical; conditions: read-out: Stability
[36] = Drug accumulation in BALB/c mouse plasma implanted with mouse 4T1 cells assessed as increase in fluorescence intensity at 0.5 mg/kg, iv measured at 96 to 120 hrs by imaging based analysis; format: ADME, organism-based; conditions: in vivo, time 96-120 hrs
[37] = Ratio of drug level in tumor to muscle of BALB/c mouse implanted with mouse 4T1 cells at 0.5 mg/kg, iv measured at 12 to 24 hrs; format: ADME, organism-based; conditions: in vivo, time 12-24 hrs
[38] = Toxicity in BALB/c mouse implanted with mouse 4T1 cells assessed as kidney damage at 5 mg/kg, iv measured for 11 days by H and E staining based analysis; format: organism-based; conditions: in vivo, 264 h, time 11 day
[39] = Antioxidant activity of compound in presence of Fe3+; format: functional
[40] = Stability of compound at 30 degreeC by thermogravimetric analysis; format: physicochemical
[41] = Antioxidant activity of compound in presence of TBHP; format: functional
[42] = Distribution coefficient, logD of compound; format: physicochemical; conditions: octanol/water
[43] = Drug accumulation in BALB/c mouse tumor xenografted with human NCI-H520 cells assessed as increase in fluorescence intensity at 0.5 mg/kg, iv measured at 96 hrs by imaging based analysis; format: ADME, organism-based, Neoplasm; conditions: in vivo
[44] = tested on: NCI-H226; test: Induction of apoptosis in human NCI-H226 cells assessed as late apoptotic cells at 5 uM incubated for 48 hrs by Annexin V-FITC/PI staining based flow cytometry (reference value: 3.61 %); format: functional
[45] = Drug accumulation in BALB/c mouse tumor implanted with mouse 4T1 cells assessed as increase in fluorescence intensity at 0.5 mg/kg, iv measured at 96 hrs by DAPI staining based fluorescence microscopic analysis; format: ADME, organism-based, Neoplasm; conditions: in vivo
[46] = Antioxidant activity of compound in presence of SO4; format: functional
[47] = Drug uptake in human NCI-H226 cells assessed as increase in green fluorescence intensity at 5 uM incubated for 30 mins by F-actin staining staining based microscopic analysis; format: ADME, cell-based; conditions: nci-h226, 0.5 h
[48] = Antioxidant activity of compound in presence of NO2; format: functional
[49] = Partition coefficient, logP of compound; format: physicochemical; conditions: octanol/water
[50] = Antioxidant activity of compound in presence of ROS; format: functional

## CCCN1/C(=C/C=C2\CCCC(/C=C/C3=[N+](Cc4ccc(C(=O)O)cc4)c4ccccc4C3(C)C)=C2Cl)C(C)(C)c2ccccc21.[Br-]
[1]
  Activity: Active
[2]
  Activity: Active
[3]
  Activity: Non-toxic
[4]
  Activity: Active
[5]
  Stability: Stable
[6]
  Activity: Active
[7]
  TGI: Active
[8]
  Drug uptake: Active
[9]
  Activity: Active
[10]
  Activity: Active
[11]
  Activity: Non-toxic
[12]
  Activity: Active
[13]
  Activity: Active
[14]
  Activity: Active
[15]
  Drug uptake: Active
[16]
  Activity: Active
[17]
  TGI: Active
[18]
  solubility: 170 µg/mL
[19]
  Drug uptake: Active
[20]
  Drug uptake: Active
[21]
  Activity: Active
[22]
  Activity: Active
[23]
  Activity: > 80%
[24]
  inhibition in vivo at 5 mg/kg: ~60%
[25]
  Activity: Active
[26]
  Activity: Active
[27]
  viability at 5 µM: 26.3%
[28]
  Drug uptake: Active
[29]
  Activity: Active
[30]
  Activity: Active
[31]
  Stability: Stable
[32]
  survival at 264 h: 100%
[33]
  Activity: Active
[34]
  Activity: Active
[35]
  remaining at 1 h: 95.8%
[36]
  Drug uptake: Active
[37]
  Ratio: > 5
[38]
  Activity: Non-toxic
[39]
  Activity: Active
[40]
  Stability: Stable
[41]
  Activity: Active
[42]
  logD: 4.49
[43]
  Drug uptake: Active
[44]
  Activity: 14%
[45]
  Drug uptake: Active
[46]
  Activity: Active
[47]
  Drug uptake: Active
[48]
  Activity: Active
[49]
  logP: 6.09
[50]
  Activity: Active
